The text below walks through data of PMC6028563, “Probing Substituents in the 1- and 3-Position: Tetrahydropyrazino-Annelated Water-Soluble Xanthine Derivatives as Multi-Target Drugs With Potent Adenosine Receptor Antagonistic Activity” (Frontiers in Chemistry, 2018).

A word on the Ki: it is the equilibrium dissociation constant of an inhibitor or competing ligand from its target. Broadly, the IC50 is the midpoint of a concentration-inhibition curve. Broadly, the Kd is the constant that tells how readily two partners part at equilibrium.

One assay addresses T1, human A2A AR (Homo sapiens, UniProt P29274).
T1 construct: expressed in transfected cells; host or cells: CHO cells
To be noted: cited from earlier work; for Ki: human (h), 2013, 2007.

The next assay addresses T2, recombinant human MAO-B (Homo sapiens, UniProt P27338).
T2 construct: purchased Sigma-Aldrich M7441; host or cells: baculovirus-infected insect cells
T2 sequence (P27338 1-520): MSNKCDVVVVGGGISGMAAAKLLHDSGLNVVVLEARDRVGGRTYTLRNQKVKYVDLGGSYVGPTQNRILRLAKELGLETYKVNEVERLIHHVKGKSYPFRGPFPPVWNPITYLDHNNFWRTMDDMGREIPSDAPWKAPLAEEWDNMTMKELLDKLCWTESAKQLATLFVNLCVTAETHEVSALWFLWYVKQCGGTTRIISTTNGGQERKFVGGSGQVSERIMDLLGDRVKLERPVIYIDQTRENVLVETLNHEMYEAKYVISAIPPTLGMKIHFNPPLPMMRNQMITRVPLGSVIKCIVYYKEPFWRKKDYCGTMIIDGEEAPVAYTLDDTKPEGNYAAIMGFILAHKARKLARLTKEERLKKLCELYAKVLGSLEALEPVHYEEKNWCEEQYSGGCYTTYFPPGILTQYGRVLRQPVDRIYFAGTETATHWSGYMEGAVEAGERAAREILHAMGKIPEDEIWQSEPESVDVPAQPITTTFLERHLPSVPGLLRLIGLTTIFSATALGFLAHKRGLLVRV
The conditions noted are these: human (h), 2013, cited from earlier work.

The subject of assay [1] is haloperidol-induced catalepsy. Also noted: method as in Wang et al., 2017; Robinson et al., 2015. The conditions noted are these: rat; ref Wang et al., 2017; Robinson et al., 2015; cited from earlier work.
In the next assay the target is T3, human A2B AR (Homo sapiens, UniProt P29275).
T3 construct: expressed in transfected cells; host or cells: CHO cells
T3 sequence (P29275 1-332): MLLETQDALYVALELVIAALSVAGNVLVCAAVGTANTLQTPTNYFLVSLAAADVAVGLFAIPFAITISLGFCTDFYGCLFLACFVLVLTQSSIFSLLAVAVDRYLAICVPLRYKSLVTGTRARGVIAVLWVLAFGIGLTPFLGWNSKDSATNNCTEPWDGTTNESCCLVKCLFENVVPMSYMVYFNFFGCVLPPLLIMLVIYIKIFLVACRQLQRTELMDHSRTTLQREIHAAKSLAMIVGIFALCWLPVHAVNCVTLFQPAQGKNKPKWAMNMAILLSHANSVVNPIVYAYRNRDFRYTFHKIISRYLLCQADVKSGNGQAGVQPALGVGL
To be noted: cited from earlier work.

The target in another assay is T4, human A3 AR (Homo sapiens, UniProt P0DMS8).
T4 construct: expressed in transfected cells; host or cells: CHO cells
T4 sequence (P0DMS8 1-318): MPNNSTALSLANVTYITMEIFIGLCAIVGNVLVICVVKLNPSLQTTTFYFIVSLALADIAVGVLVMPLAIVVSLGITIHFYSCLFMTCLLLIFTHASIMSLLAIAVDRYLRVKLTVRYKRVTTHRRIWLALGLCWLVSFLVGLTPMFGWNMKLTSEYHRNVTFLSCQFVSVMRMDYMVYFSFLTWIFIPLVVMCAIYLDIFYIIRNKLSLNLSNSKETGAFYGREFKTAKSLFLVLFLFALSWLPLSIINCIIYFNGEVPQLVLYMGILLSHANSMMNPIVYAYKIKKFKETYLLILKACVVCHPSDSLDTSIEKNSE
To be noted: cited from earlier work; for Ki: human (h).

Another assay concerns the target T5, human A1 AR (Homo sapiens, UniProt P30542).
T5 construct: expressed in transfected cells; host or cells: CHO cells
T5 sequence (P30542 1-326): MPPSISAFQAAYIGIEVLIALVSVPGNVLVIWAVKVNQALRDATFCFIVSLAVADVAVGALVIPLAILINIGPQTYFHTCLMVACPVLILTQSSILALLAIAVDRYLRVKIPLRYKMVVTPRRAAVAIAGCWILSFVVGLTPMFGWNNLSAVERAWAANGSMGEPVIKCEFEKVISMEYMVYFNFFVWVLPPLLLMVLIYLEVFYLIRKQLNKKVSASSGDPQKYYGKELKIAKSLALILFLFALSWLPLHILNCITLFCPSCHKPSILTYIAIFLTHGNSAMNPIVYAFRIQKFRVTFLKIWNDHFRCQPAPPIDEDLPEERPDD
To be noted: cited from earlier work.

A further assay has as its target T6, rat A2A AR (Rattus norvegicus, UniProt P30543).
T6 construct: A2A ARs of rat brain striatal membrane preparations; from tissue; host or cells: rat brain striatum membranes
The conditions noted are these: cited from earlier work.

The next assay addresses T7, recombinant human MAO-A (Homo sapiens, UniProt P21397).
T7 construct: purchased Sigma-Aldrich M7316; host or cells: baculovirus-infected insect cells
T7 sequence (P21397 1-527): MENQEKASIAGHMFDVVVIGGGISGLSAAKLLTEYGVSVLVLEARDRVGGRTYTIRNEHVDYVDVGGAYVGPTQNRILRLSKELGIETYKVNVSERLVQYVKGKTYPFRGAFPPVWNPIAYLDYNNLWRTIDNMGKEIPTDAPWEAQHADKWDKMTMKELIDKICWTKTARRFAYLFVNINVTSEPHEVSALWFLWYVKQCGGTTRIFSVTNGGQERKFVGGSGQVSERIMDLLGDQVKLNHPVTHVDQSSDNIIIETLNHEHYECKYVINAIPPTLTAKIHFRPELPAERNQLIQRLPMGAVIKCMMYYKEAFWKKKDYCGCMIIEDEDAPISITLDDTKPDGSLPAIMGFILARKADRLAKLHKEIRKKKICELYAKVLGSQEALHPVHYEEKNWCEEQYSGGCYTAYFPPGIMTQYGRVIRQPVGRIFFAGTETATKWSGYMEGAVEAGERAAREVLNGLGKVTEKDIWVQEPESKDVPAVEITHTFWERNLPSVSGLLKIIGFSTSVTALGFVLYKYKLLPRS
As to the kind of experiment: Monoamine oxidase assay (Amplex Red), MAO-A. In kind it is biochemical. The procedure, abridged:
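Inhibition was measured with an Amplex Red monoamine oxidase assay, using human MAO-A and MAO-B produced recombinantly in baculovirus-infected insect cells. For rat MAO-B, liver mitochondria-enriched fractions from male Sprague Dawley rats served as enzyme source.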

The subject of another assay is rat MAO-B. More on the design: method as in Brunschweiger et al., 2014, 2016. To be noted: rat (r); Figure 3 and introduction; ref Brunschweiger et al., 2014, 2016; cited from earlier work.
The mark [2] stands for this setting: Figure 2 and introduction, ref Chen et al., 2002, Pretorius et al., 2008, Wang et al., 2017, Stössel et al.
Setting [3] is: human (h), Figure 3 and introduction, ref Drabczynska et al., 2007, Koch et al., 2013, Brunschweiger et al., 2014, 2016, read-out: A1 (Ki).
The mark [4] stands for this setting: Figure 3 and introduction, ref Drabczynska et al., Koch et al., Brunschweiger et al., 2014, 2016.
Where [5] appears, read: Figure 3 and introduction, ref Drabczynska et al., 2007, Koch et al., Brunschweiger et al., 2014, 2016.
Where [6] appears, read: radioligand, ref Müller et al., 2000.

Several values for one entry are separate records, joined by “and”; a condition that tells them apart may be missing. Equal values may be shown once. Read-outs that look alike come from different tables or passages of the source.

T1 sequence (P29274 whole entry): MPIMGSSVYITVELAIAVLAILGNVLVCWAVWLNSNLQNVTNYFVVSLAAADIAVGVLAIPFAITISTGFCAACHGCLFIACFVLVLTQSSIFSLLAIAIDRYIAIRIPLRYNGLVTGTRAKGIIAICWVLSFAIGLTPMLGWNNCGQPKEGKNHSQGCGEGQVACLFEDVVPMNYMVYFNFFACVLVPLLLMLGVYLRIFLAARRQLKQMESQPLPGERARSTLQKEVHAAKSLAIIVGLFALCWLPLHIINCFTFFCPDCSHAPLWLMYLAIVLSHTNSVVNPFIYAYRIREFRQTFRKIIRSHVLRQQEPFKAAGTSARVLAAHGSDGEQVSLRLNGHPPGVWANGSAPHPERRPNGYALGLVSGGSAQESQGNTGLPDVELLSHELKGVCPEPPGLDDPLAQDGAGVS
T6 sequence (P30543 whole entry): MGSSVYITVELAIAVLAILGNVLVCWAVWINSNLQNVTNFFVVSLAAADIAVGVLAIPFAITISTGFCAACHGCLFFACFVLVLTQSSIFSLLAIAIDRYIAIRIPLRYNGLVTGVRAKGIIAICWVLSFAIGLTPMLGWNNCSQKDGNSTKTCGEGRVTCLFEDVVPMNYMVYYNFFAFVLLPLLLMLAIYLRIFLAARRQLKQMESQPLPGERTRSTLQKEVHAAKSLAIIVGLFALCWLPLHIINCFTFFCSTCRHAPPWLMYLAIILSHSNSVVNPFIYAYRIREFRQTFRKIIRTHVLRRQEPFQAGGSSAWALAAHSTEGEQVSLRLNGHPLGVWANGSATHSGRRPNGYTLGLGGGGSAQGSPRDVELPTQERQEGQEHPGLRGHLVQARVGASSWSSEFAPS

For `Cn1c(=O)c2c(nc(-c3ccc(C(=O)Nc4ccccc4)cc3)n2C)n(C)c1=O` [PX-D-P6], on human A2A AR (Figure 2 and introduction, ref Chen et al., 2002, Wang et al., 2017, Stössel et al., Mihara et al.), the Ki is 330 nM. Also, the half-maximal inhibitory concentration (IC50) on recombinant human MAO-B (setting [2]) was 260 nM and 290 nM. Moreover, the “effect in haloperidol-induced catalepsy model” value in assay [1] is recorded as “anti-cataleptic effects”.

Take `Cc1ccc(-c2cc(-c3cccc(C(=O)N4CCCCC4)c3)nc(N)n2)o1` [Compound 8]: in assay [1], the “effect in haloperidol-induced catalepsy model” value was “in vivo efficacy”.

As to `O=C(CCCc1ccccc1)Nc1nc2ccccc2c(=O)s1` [Compound 6, N-(4-oxo-4H-3,1-benzothiazin-2-yl)-4-phenylbutanamide], the Ki at human A2B AR (human (h), Figure 2, ref Chen et al., 2002, Stössel et al., 2013) is more than 1000 nM; at human A3 AR (Figure 2, ref Chen et al., 2002, Stössel et al., 2013, Mihara et al., 2007, read-out: A3 (Ki)), more than 1000 nM.

For “1,3-Dimethyl-6,7,8,9-tetrahydropyrazino[2,1-f ]purine-2,4(1H,3H)-dione [Compound 10c]”, the figures for the inhibition constant (Ki) on human A1 AR (setting [3]) and at human A2A AR (setting [4]) were 116 nM and 94 nM, respectively.

Consider `Cn1c(=O)c2c(nc3n2CCN(Cc2cc(F)c(Cl)cc2Cl)C3)n(C)c1=O` [Compound 10a, 8-(2,4-dichloro-5-fluorobenzyl)-1,3-dimethyl-6,7,8,9-tetrahydropyrazino[2,1-f]purine-2,4(1H,3H)-dione], for which the inhibitory constant (Ki) is 217 nM at human A1 AR (setting [3]) and 268 nM on human A2A AR (setting [4]). On recombinant human MAO-B (setting [5]), the half-inhibitory concentration (IC50) is 508 nM.

Take `C#CCn1c(=O)c2c(nc(C=Cc3cccc(OC)c3)n2C)n(CCCO)c1=O` [[^3H]MSX-2, [^3H]3-(3-hydroxypropyl)-7-methyl-8-(m-methoxystyryl)-1-propargylxanthine]: the dissociation constant (Kd) at human A2A AR (setting [6]) was 7.3 nM; on rat A2A AR (setting [6]), 8 nM.

`Cn1c(=O)c2c(nc(/C=C/C=C/c3cccc(Br)c3)n2C)n(C)c1=O` [Compound 4]: at recombinant human MAO-B (setting [2]), the IC50 is 37.9 nM.

As for `Cn1c(=O)c2c(nc(C=Cc3cccc(Cl)c3)n2C)n(C)c1=O` [CSC, 8-m-Chlorostyrylcaffeine], at recombinant human MAO-A (at 10,000 nM, read-out: % inhibition at indicated concentration, Human MAO-A), the inhibition at 10 µM was found to be 23%. Moreover, the 50% inhibitory concentration (IC50) at recombinant human MAO-A (n = 3, read-out: IC50 ± SEM, Human MAO-A) was more than 10000 nM. Further, the “% inhibition of radioligand binding at indicated concentration, A1 vs. [^3H]CCPA” value at human A1 AR (at 10,000 nM, ref Müller and Jacobson (2011), Brunschweiger et al. (2014)) is 14%. Besides, the Ki is more than 10000 nM on human A1 AR (read-out: Ki, A1 vs. [^3H]CCPA, standard antagonists, ref Müller and Jacobson (2011), Brunschweiger et al. (2014)); more than 10000 nM on human A3 AR (standard antagonists, ref Müller and Jacobson (2011), Brunschweiger et al. (2014), read-out: Ki, A3 vs. [^3H]PSB-11).

As to `Cn1c(=O)c2c(nc3n2CCCN3Cc2ccccc2)n(C)c1=O` [Compound 9a], the Ki on human A1 AR (setting [3]) is 249 nM; on human A2A AR (setting [4]), 253 nM.

Take “[^3H]8-(4-[4-(4-chlorophenyl)piperazine-1-sulfonyl]phenyl)-1-propyl-2,3,6,7-tetrahydro-1H-purine-2,6-Dione [[^3H]PSB-603]”: on human A2B AR (radioligand, ref Borrmann et al., 2009), the Kd was 0.41 nM.

Turning to “[^3H](R)-8-ethyl-4-methyl-2-(phenyl)1,4,7,8-tetrahydro-5H-imidazo[2,1-i]purin-5-one [[^3H]PSB-11]”, the Kd at human A3 AR (radioligand, ref Müller et al., 2002) is 4.9 nM.

Consider `COc1ccccc1CN1CCCn2c1nc1c2c(=O)n(C)c(=O)n1C` [Compound 9b], for which the Ki is 605 nM on human A1 AR (setting [3]) and 417 nM at human A2A AR (setting [4]). Besides, on recombinant human MAO-B (setting [5]), the IC50 is 1800 nM.

As for `Cn1c(=O)c2c(nc3n2CCN(Cc2ccc(Cl)c(Cl)c2)C3)n(C)c1=O` [Compound 10b, 8-(3,4-Dichlorobenzyl)-1,3-dimethyl-6,7,8,9-tetrahydropyrazino[2,1-f]purine-2,4(1H,3H)-dione], the Ki on rat A2A AR (rat (r), Figure 3 and introduction, ref Brunschweiger et al., 2014, 2016) was 322 nM. Also, in the assay on rat MAO-B, the IC50 was 260 nM.
